ChEMBL document CHEMBL5550190 (J Med Chem, 2024)

Legend:
[1] = Metabolic stability in mouse liver microsomes assessed as half life at 100 uM preincubated for 5 mins followed by NADPH addition and measured upto 60 mins by LC-MS/MS analysis; assay type: ADME, Microsome; conditions: time < 65 min
[2] = Metabolic stability in human liver microsomes assessed as half life at 100 uM preincubated for 5 mins followed by NADPH addition and measured upto 60 mins by LC-MS/MS analysis; assay type: ADME, Microsome; conditions: time < 65 min
[3] = Metabolic stability in mouse liver microsomes assessed as half life at 100 uM measured upto 60 mins by LC-MS/MS analysis; assay type: ADME, Microsome; conditions: 1 h
[4] = Metabolic stability in human liver microsomes assessed as half life at 100 uM measured upto 60 mins by LC-MS/MS analysis; assay type: ADME, Microsome; conditions: 1 h
CYP1A2 = molecular target: T1, CYP1A2 (Homo sapiens, UniProt P05177); test: Drug metabolism in human liver microsomes assessed as CYP1A2-mediated metabolism by measuring increase in half life in presence of furafylline (reference value: 10.8 mins); assay type: ADME, Microsome; conditions: with furafylline
T1 sequence (P05177 whole entry): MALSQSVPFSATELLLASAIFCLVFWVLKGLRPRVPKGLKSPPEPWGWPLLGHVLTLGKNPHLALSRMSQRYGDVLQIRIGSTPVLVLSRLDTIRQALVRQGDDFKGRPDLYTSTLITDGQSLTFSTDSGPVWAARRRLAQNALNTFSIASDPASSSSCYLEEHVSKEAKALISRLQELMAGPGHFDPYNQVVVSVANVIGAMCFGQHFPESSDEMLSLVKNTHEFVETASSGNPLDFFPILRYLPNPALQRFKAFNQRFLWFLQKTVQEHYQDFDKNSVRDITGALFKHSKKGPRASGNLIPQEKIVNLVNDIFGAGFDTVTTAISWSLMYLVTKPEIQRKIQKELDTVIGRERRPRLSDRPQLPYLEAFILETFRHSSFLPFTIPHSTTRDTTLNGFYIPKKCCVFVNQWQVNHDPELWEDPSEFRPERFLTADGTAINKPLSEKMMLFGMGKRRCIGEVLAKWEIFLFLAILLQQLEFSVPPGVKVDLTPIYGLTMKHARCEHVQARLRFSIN

CYP2C9 = CYP2C9 (Homo sapiens, UniProt P11712); test: Drug metabolism in human liver microsomes assessed as CYP2C9-mediated metabolism by measuring increase in half life in presence of sulfaphenazole (reference value: 10.8 mins); assay type: ADME, Microsome; conditions: with sulfaphenazole
Chain of CYP2C9 (P11712 whole entry): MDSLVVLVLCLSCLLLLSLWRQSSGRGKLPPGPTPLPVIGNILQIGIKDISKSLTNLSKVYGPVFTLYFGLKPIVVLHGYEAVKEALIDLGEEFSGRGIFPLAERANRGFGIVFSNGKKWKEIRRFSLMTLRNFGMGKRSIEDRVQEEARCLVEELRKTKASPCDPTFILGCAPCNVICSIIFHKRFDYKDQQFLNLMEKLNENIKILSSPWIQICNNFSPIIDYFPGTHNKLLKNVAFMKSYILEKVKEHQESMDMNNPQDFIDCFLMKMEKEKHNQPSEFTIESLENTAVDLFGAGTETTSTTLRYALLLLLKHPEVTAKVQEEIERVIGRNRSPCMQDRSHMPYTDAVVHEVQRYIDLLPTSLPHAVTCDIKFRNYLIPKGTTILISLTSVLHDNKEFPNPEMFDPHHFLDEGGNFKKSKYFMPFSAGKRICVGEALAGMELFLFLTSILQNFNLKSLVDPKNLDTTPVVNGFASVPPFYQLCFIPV

CYP2C19 = CYP2C19 (Homo sapiens, UniProt P33261); test: Drug metabolism in human liver microsomes assessed as CYP2C19-mediated metabolism by measuring increase in half life in presence of (+)-N-3-benzylnirvanol (reference value: 10.8 mins); assay type: ADME, Microsome; conditions: with (+)-N-3-benzylnirvanol
Chain of CYP2C19 (P33261 whole entry): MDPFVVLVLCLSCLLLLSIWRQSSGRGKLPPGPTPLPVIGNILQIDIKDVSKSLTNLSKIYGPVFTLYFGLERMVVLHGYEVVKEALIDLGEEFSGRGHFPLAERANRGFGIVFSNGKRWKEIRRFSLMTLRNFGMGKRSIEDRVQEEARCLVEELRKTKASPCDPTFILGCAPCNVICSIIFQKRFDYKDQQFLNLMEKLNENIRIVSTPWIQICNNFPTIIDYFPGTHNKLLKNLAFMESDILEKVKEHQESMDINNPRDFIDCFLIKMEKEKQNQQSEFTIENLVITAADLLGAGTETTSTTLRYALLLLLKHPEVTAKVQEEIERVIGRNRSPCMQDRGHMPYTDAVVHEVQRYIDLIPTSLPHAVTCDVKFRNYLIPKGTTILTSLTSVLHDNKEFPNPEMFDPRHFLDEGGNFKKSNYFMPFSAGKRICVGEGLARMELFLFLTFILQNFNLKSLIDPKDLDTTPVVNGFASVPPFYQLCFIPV

CYP2D6 = CYP2D6 (Homo sapiens, UniProt P10635); test: Drug metabolism in human liver microsomes assessed as CYP2D6-mediated metabolism by measuring increase in half life in presence of quinidine (reference value: 10.8 mins); assay type: ADME, Microsome; conditions: with quinidine
Chain of CYP2D6 (P10635 whole entry): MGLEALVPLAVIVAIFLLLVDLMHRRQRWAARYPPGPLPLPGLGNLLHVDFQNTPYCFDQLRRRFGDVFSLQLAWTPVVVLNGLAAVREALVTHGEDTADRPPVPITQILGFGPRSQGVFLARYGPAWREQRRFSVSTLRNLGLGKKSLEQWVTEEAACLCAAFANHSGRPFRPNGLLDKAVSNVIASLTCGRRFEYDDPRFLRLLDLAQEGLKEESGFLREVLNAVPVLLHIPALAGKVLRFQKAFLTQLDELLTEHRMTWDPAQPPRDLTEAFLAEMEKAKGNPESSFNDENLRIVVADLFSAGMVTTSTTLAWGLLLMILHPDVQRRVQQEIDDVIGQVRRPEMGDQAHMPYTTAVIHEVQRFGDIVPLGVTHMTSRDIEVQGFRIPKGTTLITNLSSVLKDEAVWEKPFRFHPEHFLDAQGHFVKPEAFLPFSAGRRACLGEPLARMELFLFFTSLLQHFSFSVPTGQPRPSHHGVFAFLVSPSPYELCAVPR

CYP3A4 = CYP3A4 (Homo sapiens, UniProt P08684); test: Drug metabolism in human liver microsomes assessed as CYP3A4-mediated metabolism by measuring increase in half life in presence of ketoconazole (reference value: 10.8 mins); assay type: ADME, Microsome; conditions: with ketoconazole
Chain of CYP3A4 (P08684 whole entry): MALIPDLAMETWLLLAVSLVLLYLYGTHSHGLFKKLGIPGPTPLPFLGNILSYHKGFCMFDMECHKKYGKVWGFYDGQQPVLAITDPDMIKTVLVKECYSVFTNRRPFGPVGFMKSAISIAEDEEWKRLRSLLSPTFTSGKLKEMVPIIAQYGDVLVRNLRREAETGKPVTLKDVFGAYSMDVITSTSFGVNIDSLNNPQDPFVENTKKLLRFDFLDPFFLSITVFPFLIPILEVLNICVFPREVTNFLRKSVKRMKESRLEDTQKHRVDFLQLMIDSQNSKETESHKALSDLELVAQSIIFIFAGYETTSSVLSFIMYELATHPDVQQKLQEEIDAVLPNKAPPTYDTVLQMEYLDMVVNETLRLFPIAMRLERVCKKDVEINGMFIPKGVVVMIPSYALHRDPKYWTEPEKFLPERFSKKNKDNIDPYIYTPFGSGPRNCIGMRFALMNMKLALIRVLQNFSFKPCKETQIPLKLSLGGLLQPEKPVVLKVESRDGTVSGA

[5] = Drug metabolism in mouse liver microsomes assessed as M1 metabolite formation at 10 uM after 30 mins in presence of NADPH by LC-MS/MS analysis; assay type: ADME, Microsome; conditions: 0.5 h
[6] = Drug metabolism in mouse liver microsomes assessed as M2 metabolite formation at 10 uM after 30 mins in presence of NADPH by LC-MS/MS analysis; assay type: ADME, Microsome; conditions: 0.5 h
[7] = Drug metabolism in mouse liver microsomes assessed as M3 metabolite formation at 10 uM after 30 mins in presence of NADPH by LC-MS/MS analysis; assay type: ADME, Microsome; conditions: 0.5 h
A549 = test: Antitumor activity against human A549 cells incubated for 48 hrs; assay type: functional
HCT-116 = test: Antitumor activity against human HCT-116 cells incubated for 48 hrs; assay type: functional
Hs-578T = test: Antitumor activity against human Hs-578T cells incubated for 48 hrs; assay type: functional
[8] = Protein binding in human plasma at 5 uM incubated for 5 hrs by LC-MS/MS analysis; assay type: ADME, cell-free; conditions: read-out: PPB
[9] = Protein binding in mouse plasma at 5 uM incubated for 5 hrs by LC-MS/MS analysis; assay type: ADME, cell-free; conditions: read-out: PPB
MDA-MB-231 [10] = test: Antitumor activity against human MDA-MB-231 cells incubated for 48 hrs by Celltiter Blue reagent based 2D microtiter assay; assay type: functional
MDA-MB-231 [11] = test: Antitumor activity against human MDA-MB-231 cells incubated for 48 hrs in presence of 1.5% BSA by Celltiter Blue reagent based 2D microtiter assay; assay type: functional
MDA-MB-231 [12] = test: Antitumor activity against human MDA-MB-231 cells incubated for 48 hrs by Celltiter Blue reagent based 3D microtiter assay; assay type: functional
MDA-MB-231 [13] = test: Antitumor activity against human MDA-MB-231 cells incubated for 48 hrs in presence of 1.5% BSA by Celltiter Blue reagent based 3D microtiter assay; assay type: functional

SMILES	GI50 (A549)	GI50 (HCT-116)	GI50 (Hs-578T)	further results
[2H]C([2H])([2H])C([2H])([2H])N(C(=O)C[C@@H]1NC(=O)c2cc(Oc3cc(C)cc(C)c3)c(NC(=O)c3cc(OC)c(OC)c(OC)c3Br)cc2NC1=O)C([2H])([2H])C([2H])([2H])[2H]	< 5 nM	< 5 nM	16.1 nM	
[2H]C([2H])([2H])Oc1cc(C(=O)Nc2cc3c(cc2Oc2cc(C)cc(C)c2)C(=O)N[C@@H](CC(=O)N(C)OC)C(=O)N3)c(Br)c(OC([2H])([2H])[2H])c1OC([2H])([2H])[2H]	4.9 nM	7.8 nM	< 5 nM	GI50 (MDA-MB-231 [10]): < 1 nM; GI50 (MDA-MB-231 [11]): < 1 nM; GI50 (MDA-MB-231 [12]): 251 nM; GI50 (MDA-MB-231 [13]): 90.3 nM
[2H]C([2H])([2H])Oc1cc(C(=O)Nc2cc3c(cc2Oc2cc(C)cc(C)c2)C(=O)N[C@@H](CC(=O)N(C([2H])([2H])C([2H])([2H])[2H])C([2H])([2H])C([2H])([2H])[2H])C(=O)N3)c(Br)c(OC([2H])([2H])[2H])c1OC([2H])([2H])[2H]	< 5 nM	< 5 nM	< 5 nM	GI50 (MDA-MB-231 [10]): < 1 nM; GI50 (MDA-MB-231 [11]): < 1 nM; GI50 (MDA-MB-231 [12]): 64.1 nM; GI50 (MDA-MB-231 [13]): 14 nM
[2H]C([2H])([2H])c1cc(Oc2cc3c(cc2NC(=O)c2cc(OC)c(OC)c(OC)c2Cl)NC(=O)[C@H](CC(=O)N(CC)CC)NC3=O)cc(C([2H])([2H])[2H])c1	11.6 nM	< 5 nM	30.1 nM	
[2H]C([2H])([2H])Oc1cc(C(=O)Nc2cc3c(cc2Oc2cc(C)cc(C)c2)C(=O)N(C)[C@@H](CC(=O)N(C([2H])([2H])C([2H])([2H])[2H])C([2H])([2H])C([2H])([2H])[2H])C(=O)N3)c(Br)c(OC([2H])([2H])[2H])c1OC([2H])([2H])[2H]	< 5 nM	< 5 nM	< 5 nM	
[2H]C([2H])([2H])Oc1cc(C(=O)Nc2cc3c(cc2Oc2cc(C)cc(C)c2)C(=O)N(C)[C@@H](CC(=O)N(C([2H])([2H])[2H])C([2H])([2H])[2H])C(=O)N3)c(Br)c(OC([2H])([2H])[2H])c1OC([2H])([2H])[2H]	< 5 nM	< 5 nM	< 5 nM	
[2H]C([2H])([2H])N(C(=O)C[C@H]1C(=O)Nc2cc(NC(=O)c3cc(OC)c(OC)c(OC)c3Br)c(Oc3cc(C)cc(C)c3)cc2C(=O)N1C)C([2H])([2H])[2H]	< 5 nM	< 5 nM	< 5 nM	
[2H]C([2H])([2H])N(C(=O)C[C@@H]1NC(=O)c2cc(Oc3cc(C)cc(C)c3)c(NC(=O)c3cc(OC)c(OC)c(OC)c3Br)cc2NC1=O)C([2H])([2H])[2H]	< 5 nM	7.1 nM	< 5 nM	GI50 (MDA-MB-231 [10]): 9.33 nM; GI50 (MDA-MB-231 [11]): 9.43 nM; GI50 (MDA-MB-231 [12]): 9.96 nM; GI50 (MDA-MB-231 [13]): 22.5 nM
COc1cc(C(=O)Nc2cc3c(cc2Oc2cc(C)cc(C)c2)C(=O)N(C)[C@@H](CC(=O)N(C)C)C(=O)N3)c(Br)c(OC)c1OC	< 5 nM	< 5 nM	< 5 nM	
[2H]C([2H])([2H])Oc1cc(C(=O)Nc2cc3c(cc2Oc2cc(C)cc(C)c2)C(=O)N[C@@H](CC(=O)N(C([2H])([2H])C([2H])([2H])[2H])C([2H])([2H])C([2H])([2H])[2H])C(=O)N3)c(Cl)c(OC([2H])([2H])[2H])c1OC([2H])([2H])[2H]	11.7 nM	< 5 nM	51.5 nM	

Further lines, with some results ahead:

GI50 (A549)	GI50 (HCT-116)	SMILES	GI50 (Hs-578T)	further results
< 5 nM	< 5 nM	CCN(CC)C(=O)C[C@H]1C(=O)Nc2cc(NC(=O)c3cc(OC)c(OC)c(OC)c3Br)c(Oc3cc(C)cc(C)c3)cc2C(=O)N1C	5.4 nM	half-life at 100 µM [1]: 13.8 min; half-life at 100 µM [2]: 11 min; Stability [3]: Stable; Stability [4]: Stable; half-life (CYP1A2): 11.4 min; half-life (CYP2C9): 16.6 min; half-life (CYP2C19): 11.7 min; half-life (CYP2D6): 11.6 min; half-life (CYP3A4): 866 min; Drug metabolism [5]: Metabolite_Detected; Drug metabolism [6]: Metabolite_Detected; Drug metabolism [7]: Metabolite_Detected; fraction unbound at 5 h, 5 µM [8]: < 0.02; fraction unbound at 5 h, 5 µM [9]: < 0.02; GI50 (MDA-MB-231 [10]): < 1 nM; GI50 (MDA-MB-231 [11]): 3.39 nM; GI50 (MDA-MB-231 [12]): 109 nM; GI50 (MDA-MB-231 [13]): 53.2 nM
19.1 nM	< 5 nM	[2H]c1c(Oc2cc3c(cc2NC(=O)c2cc(OC)c(OC)c(OC)c2Cl)NC(=O)[C@H](CC(=O)N(CC)CC)NC3=O)c([2H])c(C([2H])([2H])[2H])c([2H])c1C([2H])([2H])[2H]	27.7 nM	
< 5 nM	15.6 nM	[2H]C([2H])([2H])Oc1cc(C(=O)Nc2cc3c(cc2Oc2cc(C)cc(C)c2)C(=O)N[C@@H](CC(=O)N(C)O)C(=O)N3)c(Br)c(OC([2H])([2H])[2H])c1OC([2H])([2H])[2H]	8.6 nM	
< 5 nM	15.6 nM	[2H]C([2H])([2H])C([2H])([2H])N(C(=O)C[C@H]1C(=O)Nc2cc(NC(=O)c3cc(OC)c(OC)c(OC)c3Br)c(Oc3cc(C)cc(C)c3)cc2C(=O)N1C)C([2H])([2H])C([2H])([2H])[2H]	< 5 nM	
< 5 nM	< 5 nM	[2H]C([2H])([2H])Oc1cc(C(=O)Nc2cc3c(cc2Oc2cc(C)cc(C)c2)C(=O)N(C)[C@@H](CC(=O)N(C)C)C(=O)N3)c(Br)c(OC([2H])([2H])[2H])c1OC([2H])([2H])[2H]	< 5 nM	
6.1 nM	< 5 nM	[2H]C([2H])([2H])Oc1cc(C(=O)Nc2cc3c(cc2Oc2cc(C)cc(C)c2)C(=O)N[C@@H](CC(=O)N(C([2H])([2H])[2H])C([2H])([2H])[2H])C(=O)N3)c(Br)c(OC([2H])([2H])[2H])c1OC([2H])([2H])[2H]	< 5 nM	
13.1 nM	< 5 nM	[2H]C([2H])([2H])Oc1c(OC)cc(C(=O)Nc2cc3c(cc2Oc2cc(C)cc(C)c2)C(=O)N[C@@H](CC(=O)N(CC)CC)C(=O)N3)c(Cl)c1OC	31.9 nM	
< 5 nM	< 5 nM	[2H]C([2H])([2H])N1C(=O)c2cc(Oc3cc(C)cc(C)c3)c(NC(=O)c3cc(OC)c(OC)c(OC)c3Br)cc2NC(=O)[C@@H]1CC(=O)N(CC)CC	20.9 nM	
< 5 nM	< 5 nM	[2H]C([2H])([2H])Oc1cc(C(=O)Nc2cc3c(cc2Oc2cc(C)cc(C)c2)C(=O)N[C@@H](CC(=O)N(CC)CC)C(=O)N3)c(Br)c(OC([2H])([2H])[2H])c1OC([2H])([2H])[2H]	8.1 nM	
< 5 nM	< 5 nM	COc1cc(C(=O)Nc2cc3c(cc2Oc2cc(C)cc(C)c2)C(=O)N[C@@H](CC(=O)N(C)C)C(=O)N3)c(Br)c(OC)c1OC	< 5 nM	
14.9 nM	5.4 nM	[2H]C([2H])([2H])Oc1cc(C(=O)Nc2cc3c(cc2Oc2cc(C)cc(C)c2)C(=O)N[C@@H](CC(=O)N(CC)CC)C(=O)N3)c(Cl)c(OC([2H])([2H])[2H])c1OC([2H])([2H])[2H]	39.7 nM	
207 nM	124 nM	[2H]c1c(C)c([2H])c(Oc2cc3c(cc2NC(=O)c2cc(OC)c(OC)c(OC)c2Cl)NC(=O)[C@H](CC(=O)N(CC)CC)NC3=O)c([2H])c1C	292 nM	
< 5 nM	< 5 nM	[2H]C([2H])([2H])Oc1cc(C(=O)Nc2cc3c(cc2Oc2cc(C)cc(C)c2)C(=O)N[C@@H](CC(=O)N(C)C)C(=O)N3)c(Br)c(OC([2H])([2H])[2H])c1OC([2H])([2H])[2H]	< 5 nM	GI50 (MDA-MB-231 [10]): 0.23 nM; GI50 (MDA-MB-231 [11]): 0.79 nM; GI50 (MDA-MB-231 [12]): 25.3 nM; GI50 (MDA-MB-231 [13]): 0.75 nM
